Values after ≈ are worked out from the molar mass of the structure shown. Read-outs that look alike come from different tables or passages of the source.

Data set [1] relates to MptpB. The settings on record: result in words; ref 63 (Cui et al.); cited from earlier work.
For data set [2], the system named is panel of bacteria and fungi. Kind of data set: Antimicrobial serial dilution assay, whole panel. The settings on record: result in words. The format is cell-based. The method, then:
(§1) The Minimum Inhibitory Concentration (MIC) of the isolated metabolites (1–8) was evaluated using serial dilution assays in a 96-well microtiter plate against a panel of Gram-positive bacteria, namely Bacillus subtilis DSM 10, Mycobacterium smegmatis ATCC 700084 and Staphylococcus aureus DSM 346; Gram-negative bacteria, including Acinetobacter baumannii DSM 30008, Chromobacterium violaceum DSM 30191, Escherichia coli DSM 1116 and Pseudomonas aeruginosa PA14 and fungal cultures of Candida albicans DSM 1665, Mucor hiemalis DSM 2656, Rhodotorula glutinis DSM 10134, Schizosaccharomyces pombe DSM 70572 and Wickerhamomyces anomalus DSM 6766, according to previously described protocols. The MTT-based cytotoxicity assay was performed against several cancer cell lines (human endocervical adenocarcinoma KB 3.1, mouse fibroblasts L929, squamous cancer A431, breast cancer MCF-7, lung cancer A549, ovary cancer SK-OV-3, and prostate cancer PC-3) in accordance with our previously established protocols.

In data set [3] the test system is mammalian cell lines. Kind of data set: cells. Format: cell-based. As for the experimental part:
as §1

Data set [4] relates to Chromobacterium violaceum DSM 30191. Kind of data set: MIC serial dilution assay. Format: cell-based. Further details: key: (-): No inhibition. The settings on record: starting concentration 66.7 μg/mL. The method, then:
as §1

In data set [5] the test system is Acinetobacter baumannii DSM 30008. Kind of data set: MIC serial dilution assay. The format is cell-based. Details: key: (-): No inhibition. The settings on record: Acinetobacter baumanii; starting concentration 66.7 μg/mL. The method, then:
as §1

Data set [6] has as its system Schizosaccharomyces pombe DSM 70572. As to the kind of experiment: MIC serial dilution assay. Format: cell-based. Further details: key: (-): No inhibition. As for the experimental part:
as §1

Data set [7] has as its system Mycobacterium smegmatis ATCC 700084. Kind of data set: MIC serial dilution assay. The settings on record: starting concentration 66.7 μg/mL. Details: key: (-): No inhibition. The format is cell-based. As for the experimental part:
as §1

For data set [8], the system named is Candida albicans DSM 1665. As to the kind of experiment: MIC serial dilution assay. Format: cell-based. Details: key: (-): No inhibition. The settings on record: starting concentration 66.7 μg/mL. As for the experimental part:
as §1

Data set [9] relates to Wickerhamomyces anomalus DSM 6766. As to the kind of experiment: MIC serial dilution assay. Format: cell-based. Further details: key: (-): No inhibition. The method, then:
as §1

The test system of data set [10] is Escherichia coli DSM 1116. As to the kind of experiment: MIC serial dilution assay. The format is cell-based. Further details: key: (-): No inhibition. The settings on record: starting concentration 66.7 μg/mL. The method, then: as §1
Data set [11] concerns Rhodotorula glutinis DSM 10134. As to the kind of experiment: MIC serial dilution assay. Format: cell-based. Further details: key: (-): No inhibition. The settings on record: Rhodoturula glutinis, starting concentration 66.7 μg/mL. As for the experimental part: as §1
Data set [12] deals with Mucor hiemalis DSM 2656. Kind of data set: MIC serial dilution assay. Format: cell-based. Further details: key: (-): No inhibition. The method, then: as §1
Data set [13] has as its system Pseudomonas aeruginosa PA14. As to the kind of experiment: MIC serial dilution assay. The format is cell-based. Details: key: (-): No inhibition. The settings on record: starting concentration 66.7 μg/mL. The method, then:
as §1

The test system of data set [14] is Staphylococcus aureus DSM 346. Kind of data set: MIC serial dilution assay. The format is cell-based. Further details: key: (-): No inhibition. As for the experimental part:
as §1

Data set [15] concerns Bacillus subtilis DSM 10. Kind of data set: MIC serial dilution assay. Format: cell-based. Further details: key: (-): No inhibition. The method, then:
as §1

Data set [16] has as its system human endocervical adenocarcinoma KB 3.1. As to the kind of experiment: MTT-based cytotoxicity assay. The format is cell-based. The settings on record: Homo sapiens, KB 3-1; KB3.1; starting concentration 37 µg/mL; read-out: IC50. The method, then:
as §1
(In general: Tetrazolium assays rely on reduction of a dye to a coloured formazan, in cell work by metabolically active cells.)

Data set [17] relates to mouse fibroblasts L929. Kind of data set: MTT-based cytotoxicity assay. The format is cell-based. The settings on record: Mus musculus, starting concentration 37 µg/mL, read-out: IC50. The method, then:
as §1

The test system of data set [18] is ovary cancer SK-OV-3. Kind of data set: MTT-based cytotoxicity assay. The format is cell-based. The settings on record: Homo sapiens, SK-OV-3; SKOV-3; starting concentration 37 µg/mL; read-out: IC50. The method, then: as §1
The subject of data set [19] is squamous cancer A431. As to the kind of experiment: MTT-based cytotoxicity assay. The format is cell-based. The settings on record: Homo sapiens, A-431; A431; starting concentration 37 µg/mL; read-out: IC50. As for the experimental part: as §1
The test system of data set [20] is lung cancer A549. Kind of data set: MTT-based cytotoxicity assay. The format is cell-based. The settings on record: Homo sapiens, starting concentration 37 µg/mL, read-out: IC50. The method, then: as §1
Data set [21] deals with breast cancer MCF-7. As to the kind of experiment: MTT-based cytotoxicity assay. The format is cell-based. The settings on record: Homo sapiens, MCF7; MCF-7; starting concentration 37 µg/mL; read-out: IC50. As for the experimental part: as §1
Data set [22] deals with prostate cancer PC-3. Kind of data set: MTT-based cytotoxicity assay. The format is cell-based. The settings on record: PC-3; starting concentration 37 µg/mL; read-out: IC50. As for the experimental part: as §1
Where [23] appears, read: starting concentration 66.7 μg/mL.

In the case of `CC(C)=CCc1ccc(O)c2c1[C@H](c1cc(C)cc3c1O[C@H](C(C)(C)O)CO3)NC2=O` [diaporisoindole B], the “inhibitory activity against MptpB” value in data set [1] was “failed to show any activity”.

A word on the MIC: it is the smallest concentration in the dilution series that meets the test's criterion for growth inhibition. A word on the IC50: it is the concentration that gives 50% inhibition. With `CCC(C)C1OC(=O)CNC(=O)CNC(=O)[C@H]([C@@H](C)O)NC(=O)C(C)C(O)CC(O)CC/C=C/C1C` (some centres unmarked) [Compound 1, eucalactam B], the “antimicrobial activity against the tested microorganisms” value in [2] was “devoid of any activity”. For the same compound, the cytotoxic effect entry in [3] (mammalian cell lines, result in words) is reported as “did not show any cytotoxic effect”. Besides, the minimal inhibitory concentration (MIC) result in data set [4], in data set [5], in [6] (setting [23]), in [7], in data set [8] and in [9] (setting [23]) was “-” each time. Moreover, the minimal inhibitory concentration (MIC) entry in [10], in data set [11], in [12] (setting [23]), in [13], in [14] (setting [23]) and in data set [15] (setting [23]) was “-” throughout. In addition, the 50% inhibitory concentration (IC50) in data set [16] and in [17] was > 72 µM throughout.

In the case of `CC(C)=CCc1ccc(O)c2c1[C@@H](c1cc(C)cc3c1O[C@H](C(C)(C)O)CO3)NC2=O` [diaporisoindole A], the “inhibitory activity against MptpB” value in data set [1] was “potent inhibitory activity”.

As to `CC(C)=CCc1ccc(O)c(C=O)c1C(=O)c1cc(C)cc2c1OC(C(C)(C)O)CO2` (centres unmarked) [Compound 6, tenellone B], the 50% inhibitory concentration (IC50) in [3] (A431, MCF-7, A549, SKOV-3 and PC-3, read-out: IC50, range over five other mammalian cell lines) is 17.7 to 42.5 µM; in data set [18] it was 42.5 µM; in data set [19], 19.3 µM; in data set [16], 20 µM; in data set [17] it was 49.5 µM; in [20], 20.8 µM. Besides, the IC50 was found to be 17.7 µM in data set [21] and 17.9 µM in data set [22]. Besides, the minimum inhibitory concentration (MIC) entry was “-” in data set [4]; “-” in [5]; 66.6 µg/mL (≈ 157 µM) in data set [6] (DSM70572, starting concentration 66.7 μg/mL, read-out: MIC); “-” in data set [7]; “-” in data set [8]; 66.6 µg/mL (≈ 157 µM) in [9] (Hansenula anomala, DSM6766, starting concentration 66.7 μg/mL, read-out: MIC). In addition, the MIC entry was “-” in [10]; 16.6 µg/mL (≈ 39.1 µM) in data set [11] (Rhodotorula glutinis, DSM10134, read-out: MIC); 16.6 µg/mL (≈ 39.1 µM) in data set [12] (DSM2656, starting concentration 66.7 μg/mL, read-out: MIC); “-” in data set [13]; 16.6 µg/mL (≈ 39.1 µM) in [14] (DSM346, starting concentration 66.7 μg/mL, read-out: MIC); 16.6 µg/mL (≈ 39.1 µM) in [15] (DSM10, starting concentration 66.7 μg/mL, read-out: MIC).

(Values after PMC10381184, “Unprecedented Antimicrobial and Cytotoxic Polyketides from Cultures of Diaporthe africana sp. nov” (Journal of Fungi, 2023).)
